Results published in PMC7313537 (PLoS ONE, 2020).
Like-named read-outs stand apart in the source and are kept apart here.

Columns and labels:
[1] = system: RT-112 (FGFR3-TACC3 fusion positive) bladder carcinoma model; assay: RT-112 xenograft efficacy; format: in vivo, Rowett Nude rats; settings: oral, 14 days
Protocol: The inoculation of 0.5 mL was performed subcutaneously on the flank. The treatment of tumor bearing rats was started 8 days after tumor inoculation.

[2] = system: phospho-FRS2 and phospho-ERK in RT-4 cells (FGFR3-TACC3); assay: Western blot of FGFR pathway markers; format: cell-based; settings: 2 hours
Description: All antibodies were purchased from commercial sources as follows: antibodies against FGFR1 (monoclonal [rabbit], catalogue no. 9740, Antibody Registry Identifier AB_11178519), ERK (monoclonal [mouse], 9107, AB_10695739), phospho-p42/44 ERK1/2 (monoclonal [rabbit], 4370, AB_2315112), phospho-STAT5 (Tyr694; monoclonal [rabbit], 4322, AB_10544692), and STAT5 (monoclonal [rabbit], 9358, AB_659905) were from Cell Signaling Technologies (Danvers, MA) and used at 1:1000 dilution; FGFR3 (monoclonal [rabbit], AB133644, AB_2810262) and FRS2 (polyclonal [rabbit], AB10425, AB_2247176) were from Abcam (Cambridge, UK) and used at 1:2000; and phospho-FRS2 (Tyr436; polyclonal [rabbit], AF5126, AB_2106234) was from R&D Systems (Minneapolis, MN) and used at 1 μg/mL. The pFGFR2 enzyme-linked immunosorbent assay (ELISA) kit was purchased from R&D Systems and ELISA was performed per manufacturer protocol.
Original Western blot images are shown in S1 File (S1 Raw images).

[3] = system: xenografted tumor models; assay: Combination with cisplatin in xenografted tumor models; format: in vivo; settings: combination of INCB054828 with cisplatin
[4] = target: FAK (Homo sapiens, UniProt Q05397); assay: Enzyme selectivity panel; format: biochemical; settings: 1 mM ATP
Protocol: (§1) The kinase assays were carried out at room temperature in HEPES 50 mM, pH 7.0, NaN3 0.02%, BSA 0.01%, Orthovanadate 0.1 mM, DTT 1 mM, MgCl2 10 mM in a final volume of 10 µL. Test compounds were transferred to the plate wells by ECHO liquid handler (Labcyte, San Jose, CA) with 0.5% dimethyl sulfoxide (DMSO) in the final assay. Peptide/kinase mixtures were diluted in the appropriate enzymatic buffer and 5µL of the mixture was added to a 384-well small volume black plate. Reactions were initiated by the addition of 5 µL ATP in reaction buffer, the final reaction mixture consisted of 500 nM peptide substrate, 1 mM ATP, and appropriate amount of specific kinase. […] The plates were then sealed and centrifuged at 1800 rpm for 2 minutes. […] Half maximal inhibitory concentration (IC50) determination was performed by fitting the curve of percent control activity versus the log of the compound concentration using the GraphPad Prism 6.0 software.

[5] = target: MINK (Homo sapiens, UniProt Q8N4C8); assay: Enzyme selectivity panel; format: biochemical; settings: 1 mM ATP
Protocol: as §1

[6] = target: IGF1R (Homo sapiens, UniProt P08069); assay: Enzyme selectivity panel; format: biochemical; settings: 1 mM ATP
Protocol: as §1

[7] = target: MAPKAPK2 (Homo sapiens, UniProt P49137); assay: Enzyme selectivity panel; format: biochemical; settings: 1 mM ATP
Protocol: as §1

[8] = target: T1, AXL (Homo sapiens, UniProt P30530); assay: Enzyme selectivity panel; format: biochemical; settings: 1 mM ATP
T1 construct: purchased In-house HTRF panel (56 kinases) and PerkinElmer (161-kinase panel)
Protocol: as §1

[9] = system: H1581 (lung cancer); assay: Cell viability assay (CellTiter-Glo); format: cell-based; settings: Homo sapiens, NCI-H1581; FGFR1 amplification; 72 hours; read-out: Mean GI50 ± S.D.
[10] = target: ROCK1 (Homo sapiens, UniProt Q13464); assay: Enzyme selectivity panel; format: biochemical; settings: 1 mM ATP
Protocol: as §1

[11] = Plasma protein binding (equilibrium dialysis); format: in vitro ADME; settings: read-out: PPB (% free)
Protocol: The final DMSO content in all cases was <0.1%. Each condition was incubated in duplicate. For protein binding determination, the Multi-Equilibrium Dialyzer System™ and diachema membranes from Harvard Apparatus (Holliston, MA) were utilized. Equilibrium dialysis was carried out in Teflon cells separated by a dialysis membrane with a molecular weight cutoff of 10,000 Daltons. […] The cells were rotated at a speed of 12 rpm in a 37°C water bath for 2 hours. Following the incubation period, buffer and serum/plasma samples were drained separately into empty preweighed glass test tubes. The tubes were reweighed, and the exact volume of sample recovered from each side of the dialysis cell was calculated using the mass. A 75-μL aliquot of each sample (buffer or serum/plasma) was added to a 96-well plate containing a protein precipitation solution of 100% methanol and 0.2 μM dextrorphan as the internal standard; 75 μL of blank buffer or plasma/serum was added to the plate to ensure identical composition across all samples. Prior to analysis, samples prepared in the 96-well plate were vigorously vortexed for approximately 5 minutes and centrifuged for 10 minutes at ~1700 × g to remove denatured proteins and particulate matter. The supernatant was transferred and analyzed using LC-MS/MS.

[12] = target: T2, EPHB4 (Homo sapiens, UniProt P54760); assay: Enzyme selectivity panel; format: biochemical; settings: 1 mM ATP
T2 construct: purchased In-house HTRF panel (56 kinases) and PerkinElmer (161-kinase panel)
Protocol: as §1

[13] = target: MSSK1 (Homo sapiens, UniProt Q9UPE1); assay: Enzyme selectivity panel; format: biochemical; settings: 1 mM ATP
Protocol: as §1

[14] = Preclinical safety studies; format: in vivo
[15] = target: T3, DDR2 (Homo sapiens, UniProt Q16832); assay: Enzyme selectivity panel; format: biochemical; settings: 1 mM ATP
T3 construct: purchased In-house HTRF panel (56 kinases) and PerkinElmer (161-kinase panel)
Protocol: as §1

[16] = cited from earlier work
[17] = system: UMUC3; assay: Cell viability assay (CellTiter-Glo); format: cell-based; settings: Homo sapiens, Bladder, lacking FGFR alterations
[18] = system: HCC-422; assay: Cell viability assay (CellTiter-Glo); format: cell-based; settings: Lung cancer; lacking FGFR alterations
[19] = target: T4, GSK3B (Homo sapiens, UniProt P49841); assay: Enzyme selectivity panel; format: biochemical; settings: 1 mM ATP
T4 construct: purchased In-house HTRF panel (56 kinases) and PerkinElmer (161-kinase panel)
Protocol: as §1

[20] = target: PLK3 (Homo sapiens, UniProt Q9H4B4); assay: Enzyme selectivity panel; format: biochemical; settings: 1 mM ATP
Protocol: as §1

[21] = system: b-FGF induced growth of human umbilical vein endothelial cells (HUVEC); assay: HUVEC proliferation stimulated with b-FGF; format: cell-based; settings: read-out: IC50 for b-FGF induced growth
[22] = system: serum inorganic phosphate; assay: Serum phosphate pharmacodynamic study; format: in vivo, C57BL/6 mice; settings: single oral dose
Protocol: Female C57BL/6 mice, 5–8 weeks of age, were obtained from Charles River Laboratories. […] Twenty-four hours after dosing, mice were anesthetized under isoflurane. Approximately 200 μL of whole blood was collected by capillary retro-orbital sinus sampling into lithium heparin collection tubes (RAM Scientific, Yonkers, NY). Blood was maintained at 4°C and transported for analysis to DuPont Haskell Global Centers for Health and Environmental Science (Newark, DE). Each sample was analyzed for levels of inorganic phosphate within 4 hours of receipt. Serum clinical chemistry parameters were determined using an Olympus® AU640 clinical chemistry analyzer (Beckman Coulter, Brea, CA). Both phosphate and calcium are manufacturer-supplied reagents and methods.

[23] = system: primary T cells from normal donors; settings: up to 1,500 nM
[24] = target: PKCD (Homo sapiens, UniProt Q05655); assay: Enzyme selectivity panel; format: biochemical; settings: 1 mM ATP
Protocol: as §1

T4 sequence (P49841 whole entry, species assumed): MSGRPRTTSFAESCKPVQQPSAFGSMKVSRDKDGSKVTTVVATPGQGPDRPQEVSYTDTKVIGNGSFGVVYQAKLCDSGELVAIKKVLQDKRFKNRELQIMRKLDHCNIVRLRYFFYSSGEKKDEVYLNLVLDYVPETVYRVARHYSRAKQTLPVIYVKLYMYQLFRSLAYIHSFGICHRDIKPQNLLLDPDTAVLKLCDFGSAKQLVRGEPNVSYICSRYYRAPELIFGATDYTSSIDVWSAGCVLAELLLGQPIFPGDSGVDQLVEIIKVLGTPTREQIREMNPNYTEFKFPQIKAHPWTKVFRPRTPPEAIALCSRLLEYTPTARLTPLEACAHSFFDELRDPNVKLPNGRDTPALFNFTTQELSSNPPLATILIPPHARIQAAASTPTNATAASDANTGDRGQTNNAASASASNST
Sequence of IGF1R (P08069 31-1367, species assumed): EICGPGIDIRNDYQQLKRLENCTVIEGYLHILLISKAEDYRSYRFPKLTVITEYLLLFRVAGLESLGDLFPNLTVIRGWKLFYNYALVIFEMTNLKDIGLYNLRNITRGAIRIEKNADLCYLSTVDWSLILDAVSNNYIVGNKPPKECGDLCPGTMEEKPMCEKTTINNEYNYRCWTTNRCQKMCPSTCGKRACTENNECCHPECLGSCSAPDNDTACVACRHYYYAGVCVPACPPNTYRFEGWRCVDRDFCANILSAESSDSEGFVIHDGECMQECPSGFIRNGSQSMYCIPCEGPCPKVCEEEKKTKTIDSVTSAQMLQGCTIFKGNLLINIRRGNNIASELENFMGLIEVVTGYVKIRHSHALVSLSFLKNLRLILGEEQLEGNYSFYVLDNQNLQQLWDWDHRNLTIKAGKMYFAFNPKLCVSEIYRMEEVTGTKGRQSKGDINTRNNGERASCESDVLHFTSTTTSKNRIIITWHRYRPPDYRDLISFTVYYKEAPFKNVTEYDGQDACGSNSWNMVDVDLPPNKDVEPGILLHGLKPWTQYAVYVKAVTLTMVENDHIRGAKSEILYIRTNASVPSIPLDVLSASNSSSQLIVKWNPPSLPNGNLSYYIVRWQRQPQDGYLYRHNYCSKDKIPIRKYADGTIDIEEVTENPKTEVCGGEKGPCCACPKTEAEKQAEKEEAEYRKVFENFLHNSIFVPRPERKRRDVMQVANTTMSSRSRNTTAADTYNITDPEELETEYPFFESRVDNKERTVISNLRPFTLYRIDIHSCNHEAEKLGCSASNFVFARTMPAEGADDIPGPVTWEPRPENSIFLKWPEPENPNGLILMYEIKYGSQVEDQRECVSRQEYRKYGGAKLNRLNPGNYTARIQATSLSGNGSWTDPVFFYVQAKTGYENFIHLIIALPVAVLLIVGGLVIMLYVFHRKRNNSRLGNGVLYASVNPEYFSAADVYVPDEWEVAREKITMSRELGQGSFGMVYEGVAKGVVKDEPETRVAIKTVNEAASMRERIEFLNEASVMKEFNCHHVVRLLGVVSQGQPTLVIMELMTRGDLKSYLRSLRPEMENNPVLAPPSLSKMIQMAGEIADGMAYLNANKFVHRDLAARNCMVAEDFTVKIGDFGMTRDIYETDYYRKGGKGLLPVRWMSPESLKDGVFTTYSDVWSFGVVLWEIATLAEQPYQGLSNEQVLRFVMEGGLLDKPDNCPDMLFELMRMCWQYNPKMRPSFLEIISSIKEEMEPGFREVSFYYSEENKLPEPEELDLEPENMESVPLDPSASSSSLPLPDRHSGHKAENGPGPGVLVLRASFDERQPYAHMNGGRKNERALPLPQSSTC
T3 sequence (Q16832 22-855, species assumed): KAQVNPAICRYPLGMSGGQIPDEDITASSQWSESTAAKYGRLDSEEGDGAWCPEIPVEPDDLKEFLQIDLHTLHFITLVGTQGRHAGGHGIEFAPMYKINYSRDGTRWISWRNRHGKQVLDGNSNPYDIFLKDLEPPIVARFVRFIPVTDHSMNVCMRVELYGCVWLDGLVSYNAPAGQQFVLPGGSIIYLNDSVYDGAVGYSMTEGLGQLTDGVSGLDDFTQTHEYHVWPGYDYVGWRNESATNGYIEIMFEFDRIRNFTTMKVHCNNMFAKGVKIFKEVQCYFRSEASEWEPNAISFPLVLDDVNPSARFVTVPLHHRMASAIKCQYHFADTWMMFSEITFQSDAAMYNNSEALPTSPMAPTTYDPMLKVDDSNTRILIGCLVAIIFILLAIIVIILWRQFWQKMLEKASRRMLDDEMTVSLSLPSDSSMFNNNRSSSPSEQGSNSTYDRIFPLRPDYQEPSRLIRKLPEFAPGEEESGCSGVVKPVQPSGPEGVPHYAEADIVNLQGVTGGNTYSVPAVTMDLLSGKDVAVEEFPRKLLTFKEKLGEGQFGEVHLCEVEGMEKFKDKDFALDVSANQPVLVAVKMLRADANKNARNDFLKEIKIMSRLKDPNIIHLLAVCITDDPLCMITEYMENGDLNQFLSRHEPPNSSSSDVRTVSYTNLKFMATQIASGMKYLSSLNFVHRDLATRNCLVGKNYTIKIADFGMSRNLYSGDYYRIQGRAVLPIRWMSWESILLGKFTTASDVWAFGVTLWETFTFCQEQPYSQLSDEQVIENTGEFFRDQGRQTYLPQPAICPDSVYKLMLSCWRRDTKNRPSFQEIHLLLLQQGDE
Sequence of MINK (Q8N4C8 whole entry): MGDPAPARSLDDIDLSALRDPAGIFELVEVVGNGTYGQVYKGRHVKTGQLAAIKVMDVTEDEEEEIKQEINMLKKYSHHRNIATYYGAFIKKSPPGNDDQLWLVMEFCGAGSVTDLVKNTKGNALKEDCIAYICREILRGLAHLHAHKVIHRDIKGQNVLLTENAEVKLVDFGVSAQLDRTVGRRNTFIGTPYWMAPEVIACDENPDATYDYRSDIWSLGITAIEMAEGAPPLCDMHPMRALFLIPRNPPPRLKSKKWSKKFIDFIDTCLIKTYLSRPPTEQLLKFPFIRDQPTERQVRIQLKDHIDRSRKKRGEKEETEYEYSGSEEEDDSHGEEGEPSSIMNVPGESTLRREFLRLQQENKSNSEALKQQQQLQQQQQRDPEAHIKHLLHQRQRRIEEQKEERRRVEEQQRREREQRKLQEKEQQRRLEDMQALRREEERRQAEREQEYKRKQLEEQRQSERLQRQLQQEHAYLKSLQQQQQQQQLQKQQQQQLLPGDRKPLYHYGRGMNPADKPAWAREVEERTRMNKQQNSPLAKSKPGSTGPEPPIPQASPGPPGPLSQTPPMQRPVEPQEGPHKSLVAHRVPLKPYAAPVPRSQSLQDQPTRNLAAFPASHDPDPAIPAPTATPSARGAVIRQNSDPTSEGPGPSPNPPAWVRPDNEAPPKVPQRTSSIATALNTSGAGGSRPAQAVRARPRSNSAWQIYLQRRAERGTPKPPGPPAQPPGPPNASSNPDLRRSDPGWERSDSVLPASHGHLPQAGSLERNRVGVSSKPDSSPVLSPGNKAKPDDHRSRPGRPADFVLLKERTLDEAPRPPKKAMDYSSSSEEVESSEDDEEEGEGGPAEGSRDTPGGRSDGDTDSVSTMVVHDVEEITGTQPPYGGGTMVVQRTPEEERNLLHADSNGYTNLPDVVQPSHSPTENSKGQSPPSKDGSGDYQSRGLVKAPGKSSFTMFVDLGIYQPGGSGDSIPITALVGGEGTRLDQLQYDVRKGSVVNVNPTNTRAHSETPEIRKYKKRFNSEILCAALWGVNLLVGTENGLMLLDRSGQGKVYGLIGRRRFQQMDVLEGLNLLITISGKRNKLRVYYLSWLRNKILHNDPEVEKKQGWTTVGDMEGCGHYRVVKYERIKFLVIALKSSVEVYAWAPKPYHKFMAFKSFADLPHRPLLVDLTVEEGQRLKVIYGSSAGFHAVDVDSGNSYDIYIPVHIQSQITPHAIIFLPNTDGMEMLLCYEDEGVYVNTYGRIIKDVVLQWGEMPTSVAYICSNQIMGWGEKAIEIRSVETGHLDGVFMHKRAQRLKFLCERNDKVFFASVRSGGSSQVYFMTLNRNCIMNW
T1 sequence (P30530 26-894, species assumed): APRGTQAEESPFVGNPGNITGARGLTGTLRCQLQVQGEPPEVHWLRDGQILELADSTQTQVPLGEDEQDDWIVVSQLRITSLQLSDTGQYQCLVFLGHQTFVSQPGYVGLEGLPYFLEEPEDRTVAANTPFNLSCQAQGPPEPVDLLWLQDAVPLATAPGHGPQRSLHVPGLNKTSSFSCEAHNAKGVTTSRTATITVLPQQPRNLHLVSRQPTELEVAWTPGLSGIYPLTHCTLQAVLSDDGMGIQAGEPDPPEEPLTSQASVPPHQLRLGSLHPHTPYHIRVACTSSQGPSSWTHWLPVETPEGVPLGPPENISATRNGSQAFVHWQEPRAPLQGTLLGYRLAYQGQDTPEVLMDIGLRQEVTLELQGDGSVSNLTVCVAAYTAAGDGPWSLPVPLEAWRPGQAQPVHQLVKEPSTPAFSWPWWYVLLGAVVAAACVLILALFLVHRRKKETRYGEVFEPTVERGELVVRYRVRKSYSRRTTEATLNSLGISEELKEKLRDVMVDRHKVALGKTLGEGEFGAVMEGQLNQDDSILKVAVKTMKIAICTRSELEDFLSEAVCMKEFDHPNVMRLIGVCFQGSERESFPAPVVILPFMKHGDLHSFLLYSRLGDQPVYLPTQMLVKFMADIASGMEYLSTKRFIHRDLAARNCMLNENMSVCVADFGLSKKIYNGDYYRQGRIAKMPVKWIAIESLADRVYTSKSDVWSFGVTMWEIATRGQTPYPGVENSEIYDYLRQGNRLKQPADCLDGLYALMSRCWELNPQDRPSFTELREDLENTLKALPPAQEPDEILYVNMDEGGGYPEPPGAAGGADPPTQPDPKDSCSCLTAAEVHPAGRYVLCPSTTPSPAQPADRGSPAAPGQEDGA

## CCN1C(=O)N(c2c(F)c(OC)cc(OC)c2F)Cc2cnc3[nH]c(CN4CCOCC4)cc3c21 [INCB054828, pemigatinib]
[1]; 0.3 mg/kg once daily
  tumor growth inhibition: significant tumor growth inhibition
[1]; 1 mg/kg once daily
  tumor growth inhibition: significant tumor growth inhibition
[2]
  levels of phospho-FRS2 and phospho-ERK: strongly suppresses
[3]
  benefit of combination with cisplatin over either single agent: significant benefit over either single agent
[4]
  IC50: > 10 µM
[5]
  IC50: > 10 µM
[6]
  IC50: > 10 µM
[7]
  IC50: > 10 µM
[8]
  IC50: > 10 µM
[9]
  GI50: 0.014 ± 0.009 µM
[10]
  IC50: > 10 µM
[11]; Sprague Dawley, pH 7.4, rat plasma
  fraction unbound at 2 h, 1 μM: 0.03
[11]; pH 7.4, human plasma
  fraction unbound at 2 h, 1 μM: 0.113
[12]
  IC50: > 10 µM
[13]
  IC50: > 10 µM
[14]
  liver toxicity and changes in blood pressure: not observed
[15]
  IC50: > 10 µM
[16]
  safety profile in phase 1 clinical trials: favorable safety profile
[16]; phase 1 dose-escalation study ref 33
  pharmacokinetic data in patients: low clearance and dose-linearity
[17]
  GI50: > 5 µM
[18]
  GI50: > 5 µM
[19]
  IC50: > 10 µM
[20]
  IC50: > 10 µM
[21]
  IC50: 0.0082 µM
[22]; 2 independent experiments
  average half maximal effective dose for phosphate induction: 2.9 mg/kg
[22]; 24 hours after dosing
  serum phosphorus: dose-dependent increase
[23]
  inhibition of the proliferation of primary T cells: no inhibition
[24]
  IC50: > 10 µM
